Measurements taken from publication PMC11274883, “Anticancer Effect of Pt^[sequence], Pt^II5MESS, Pt^II56MESS and Their Platinum(IV)-Dihydroxy Derivatives against Triple-Negative Breast Cancer and Cisplatin-Resistant Colorectal Cancer” (Cancers, 2024).

Assays:
Type in all cases: cell-based
MCF−7 = experiment: WST-1 cytotoxicity, 72 h; conditions: MCF−7, 72 h, mean ± SEM
Summary of the method: (§1)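 Cells were seeded at 1000 per well and exposed to compound for 72 h. Viability was then read with WST-1 (1 h, absorbance at 450 nm). Apparent IC50 values came from nonlinear regression of % survival across three experiments, each with n = 3.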

ADDP = experiment: WST-1 cytotoxicity, 72 h; conditions: ADDP, 72 h, mean ± SEM
Summary of the method: as §1

A2780 = experiment: WST-1 cytotoxicity, 72 h; conditions: A2780, 72 h, mean ± SEM
Summary of the method: as §1

MDA−MB−231 = experiment: WST-1 cytotoxicity, 72 h; conditions: MDA−MB−231, 72 h, mean ± SEM
Summary of the method: as §1

HT29 = experiment: WST-1 cytotoxicity, 72 h; conditions: HT29, 72 h, mean ± SEM
Summary of the method: as §1

HT29 cells = experiment: Western blot protein expression; conditions: HT29, IC50, 72 h
Summary of the method: (§2)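 Cells were lysed in RIPA buffer with orthovanadate, and 20 µg protein was run on SDS-PAGE, transferred to PVDF and probed for proliferation, apoptosis, microtubule and autophagy markers. ECL band intensities were normalised to GAPDH and then to untreated control. Three independent experiments were run per marker.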

MDA−MB−231 cells = experiment: Western blot protein expression; conditions: MDA−MB−231, IC50, 72 h
Summary of the method: as §2

MCF10A = experiment: WST-1 cytotoxicity, 72 h; conditions: mean ± SEM
Summary of the method: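 Cells seeded at 1000 per well, with WST-1 added after 72 h and absorbance read at 450 nm 1 h later. Apparent IC50 from a nonlinear fit of % survival versus log concentration; three separate experiments, each n = 3.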

[1] = representative blot Figure S30G
[2] = representative blot Figure S30H

Work on `N.N.[Cl][Pt][Cl]` [Cisplatin, cisplatin] yielded an IC50 (MCF−7) of 33 ± 1.35 µM, an IC50 (ADDP) of 112 ± 2.02 µM and an IC50 (A2780) of 21.5 ± 1.55 µM. The IC50 (MDA−MB−231) was 13.1 ± 1.36 µM, the IC50 (HT29) was 77.8 ± 1.97 µM and the “β-actin/GAPDH normalized to control (1)” value (HT29 cells; representative blot Figure S28A) was 0.6345. For the same molecule, the “β-tubulin/GAPDH normalized to control (1)” value (HT29 cells; representative blot Figure S28B) was 0.8003, the “α-tubulin/GAPDH normalized to control (1)” value (HT29 cells; representative blot Figure S28C) was 0.8201 and the “p-AKT/AKT/GAPDH normalized to control (1)” value (HT29 cells; representative blot Figure S29A) was 0.288. For the same molecule, the “p-ERK/ERK/GAPDH normalized to control (1)” value (HT29 cells; representative blot Figure S29B) was 1.125, the “p53/GAPDH normalized to control (1)” value (HT29 cells; representative blot Figure S29C) was 0.9507 and the “p21/GAPDH normalized to control (1)” value (HT29 cells; representative blot Figure S29D) was 2.964. For the same molecule, the “Bax/GAPDH normalized to control (1)” value (HT29 cells; representative blot Figure S30A) was 1.81, the “Bcl2/GAPDH normalized to control (1)” value (HT29 cells; representative blot Figure S30B) was 0.5659 and the “Cyt C/GAPDH normalized to control (1)” value (HT29 cells; representative blot Figure S30C) was 2.419. The “Procaspase 8/GAPDH normalized to control (1)” value (HT29 cells; representative blot Figure S30D) was 0.004029, the “Cleaved BID/GAPDH normalized to control (1)” value (HT29 cells; representative blot Figure S30E) was 2.527 and the “Procaspase 9/GAPDH normalized to control (1)” value (HT29 cells; representative blot Figure S30F) was 0.6388. For the same molecule, the “Cleaved caspase 3/GAPDH normalized to control (1)” value (HT29 cells; [1]) was 11.81, the “Procaspase 3/GAPDH normalized to control (1)” value (HT29 cells; [1]) was 1.2 and the “Cleaved PARP-1/GAPDH normalized to control (1)” value (HT29 cells; [2]) was 3.484. For the same molecule, the “PARP-1/GAPDH normalized to control (1)” value (HT29 cells; [2]) was 0.8236, the “Beclin1/GAPDH normalized to control (1)” value (HT29 cells; representative blot Figure S31A) was 3.89 and the “ATG5/GAPDH normalized to control (1)” value (HT29 cells; representative blot Figure S31B) was 1.193. The “ATG16L1/GAPDH normalized to control (1)” value (HT29 cells; representative blot Figure S31C) was 1.173, the “ATG9A/GAPDH normalized to control (1)” value (HT29 cells; representative blot Figure S31D) was 2.212 and the “ATG4B/GAPDH normalized to control (1)” value (HT29 cells; representative blot Figure S31E) was 1.101. The “LC3B/GAPDH normalized to control (1)” value (HT29 cells; representative blot Figure S31F) was 3.233, the “LC3B protein expression level increase” value (MDA−MB−231 cells; Figure 12D) was “up to 3 folds” and the “β-actin/GAPDH normalized to control (1)” value (MDA−MB−231 cells; representative blot Figure S24A) was 0.5805. For the same molecule, the “β-tubulin/GAPDH normalized to control (1)” value (MDA−MB−231 cells; representative blot Figure S24B) was 1.195, the “α-tubulin/GAPDH normalized to control (1)” value (MDA−MB−231 cells; representative blot Figure S24C) was 0.9486 and the “p-AKT/AKT/GAPDH normalized to control (1)” value (MDA−MB−231 cells; representative blot Figure S25A) was 0.6181. The “p-ERK/ERK/GAPDH normalized to control (1)” value (MDA−MB−231 cells; representative blot Figure S25B) was 0.2123, the “p53/GAPDH normalized to control (1)” value (MDA−MB−231 cells; representative blot Figure S25C) was 1.585 and the “p21/GAPDH normalized to control (1)” value (MDA−MB−231 cells; representative blot Figure S25D) was 1.351. The “Bax/GAPDH normalized to control (1)” value (MDA−MB−231 cells; representative blot Figure S26A) was 1.836, the “Bcl2/GAPDH normalized to control (1)” value (MDA−MB−231 cells; representative blot Figure S26B) was 0.7529 and the “Cytochrome C/GAPDH normalized to control (1)” value (MDA−MB−231 cells; representative blot Figure S26C) was 2.371. For the same molecule, the “Procaspase 8/GAPDH normalized to control (1)” value (MDA−MB−231 cells; representative blot Figure S26D) was 0.5682, the “Cleaved BID/GAPDH normalized to control (1)” value (MDA−MB−231 cells; representative blot Figure S26E) was 11.07 and the “Procaspase 9/GAPDH normalized to control (1)” value (MDA−MB−231 cells; representative blot Figure S26F) was 1.122. The “Procaspase 3/GAPDH normalized to control (1)” value (MDA−MB−231 cells; representative blot Figure S26G) was 0.8253, the “PARP-1/GAPDH normalized to control (1)” value (MDA−MB−231 cells; representative blot Figure S26H) was 0.7867 and the “Beclin1/GAPDH normalized to control (1)” value (MDA−MB−231 cells; representative blot Figure S27A) was 0.9211. The “ATG5/GAPDH normalized to control (1)” value (MDA−MB−231 cells; representative blot Figure S27B) was 0.8216, the “ATG16L1/GAPDH normalized to control (1)” value (MDA−MB−231 cells; representative blot Figure S27C) was 0.9512 and the “ATG9A/GAPDH normalized to control (1)” value (MDA−MB−231 cells; representative blot Figure S27D) was 0.6551. The “ATG4B/GAPDH normalized to control (1)” value (MDA−MB−231 cells; representative blot Figure S27E) was 1.551, the “LC3B/GAPDH normalized to control (1)” value (MDA−MB−231 cells; representative blot Figure S27F) was 1.368 and the IC50 (MCF10A) was 4.71 ± 1.47 µM.
